US11548894B2, “Benzamide or benzamine compounds useful as anticancer agents for the treatment of human cancers” (The Board of Regents of the University of Texas System, priority 2015, dated 2023)

Test system: Mut6 cells (TD-NSC)
Assay: luminescence-based Celltiter-Glo cell viability assay (ATP levels) on Mut6 tumor derived neuronal stem cells
Set-up: species or system mouse
Details: ATP activity as measure of viability, 96 hours
Text: A mouse colony with 100% incidence of GBM and with conditional knockout of p53, pTEN and NF1 genes (Mut6; glioblastoma) was used to isolate primary neuronal stem cells from GBM tumors cultured in 5% Oxygen and in serum free media with defined growth factors. Primary cells from multiple tumors were pooled for high throughput screening with controls against the University of Texas Southwestern (UTSW) compound file, which encompasses ˜200,000 synthetic compounds that represent a large chemical space from several commercial vendors, including 1200 marketed drugs from the Prestwick Chemical Library®, and 600 compounds that went to pre-clinical tests from the NIH library.
A luminescence-based Celltiter-Glo® assay was performed to measure cell viability, using ATP levels as the readout. In brief, opaque-walled multiwell plates with Mut6 cells in culture medium (25 μl per well, 384-well plates) were prepared. Control wells containing medium without cells were prepared to obtain a value for background luminescence. Test compounds were added to experimental wells, and incubated according to culture protocol. The plate and its contents were incubated at 37° C., 5% […] for 96 hours. An ATP standard curve was generated immediately prior to adding the CellTiter-Glo® Reagent. A volume of CellTiter-Glo® Reagent equal to the volume of cell culture medium present in each well (25 μl of reagent to 25 μl of medium containing cells for a 384-well plate) was added. The contents were mixed for 2 minutes on an orbital shaker to induce cell lysis. The plate was allowed to incubate at room temperature for 10 minutes to stabilize the luminescent signal and luminescence recorded. (e.g. GloMax®, Lumistar, SPECTROstar, PHERAstar FS).
Compound 4C12 served as initial lead compound for analog development and for additional studies. […] See Wager, T T et al, “Moving beyond rules: the development of a central nervous system multi-parameter-optimization (CNS MPO) approach to enable alignment of drug-like properties,” ACS Chem. Neurosci. 1(6): 435-49 (2010). IC50 curves for the analog compounds plotted as ATP activity (y axis, a measure of viability) vs. concentration (nM) (x-axis) are shown in FIG. 9.

**Q.** How did the “EC50 (TD-NSC) (nM)” value turn out when `CC(C)(C)OC(=O)N1CCN(CCNC(=O)c2ccc(Sc3ccc(F)cc3)c([N+](=O)[O-])c2)CC1` [DS-2-127, Tert-butyl 4-(2-(4-((4-fluorophenyl)thio)-3-nitrobenzamido)ethyl)piperazine-1-carboxylate] was run?
**A.** Not Active

Same assay, conditions: Mus musculus, 96 h, ATP activity as measure of viability, 96 hours; read-out: EC50 (TD-NSC)

**Q.** With `CCOC(=O)c1cc(F)ccc1Sc1ccc(C(=O)NCC2CCCN2CC)cc1[N+](=O)[O-]` (stereo not drawn) [DS-1-265, Ethyl 2-((4-(((1-ethylpyrrolidin-2-yl)methyl)carbamoyl)-2-nitrophenyl)thio)-5-fluorobenzoate] as the compound, how does the EC50 read?
**A.** > 1000 nM

**Q.** `CCN1CCCC1CNC(=O)c1ccc(Sc2cccc3cccnc23)c([N+](=O)[O-])c1` (stereo not drawn) [DS-1-269, N-((1-ethylpyrrolidin-2-yl)methyl)-3-nitro-4-(quinolin-8-ylthio)benzamide] was tested. Which EC50 did it give?
**A.** 535 nM

**Q.** For `CCN1CCCC1CNC(=O)c1ccc(Sc2ccc(C)cc2)c([N+](=O)[O-])c1` (stereo not drawn) [DS-1-271, N-((1-ethylpyrrolidin-2-yl)methyl)-3-nitro-4-(p-tolylthio)benzamide], which EC50 is on record?
**A.** 55 nM

**Q.** With `O=C(NCC1CCCO1)c1ccc(Sc2ccc(F)cc2)c([N+](=O)[O-])c1` (stereo not drawn) [DS-1-275, 4-((4-fluorophenyl)thio)-3-nitro-N-((tetrahydrofuran-2-yl)methyl)benzamide] as the compound, how does the EC50 read?
**A.** > 1000 nM

**Q.** For `CCN1CCCC1COC(=O)c1ccc(Sc2ccc(F)cc2)c([N+](=O)[O-])c1` (stereo not drawn) [DS-1-287, (1-ethylpyrrolidin-2-yl)methyl 4-((4-fluorophenyl)thio)-3-nitrobenzoate], which EC50 is on record?
**A.** > 1000 nM

**Q.** With `CCN1CCCC1CNC(=O)c1ccc(Sc2ccc(Cl)c(Cl)c2)c([N+](=O)[O-])c1` (stereo not drawn) [DS-1-291, 4-((3,4-dichlorophenyl)thio)-N-((1-ethylpyrrolidin-2-yl)methyl)-3-nitrobenzamide] as the compound, how does the EC50 read?
**A.** 93 nM

**Q.** Which EC50 does the source give for `CCN1CCCC1CNC(=O)c1ccc(Sc2cccc(Cl)c2)c([N+](=O)[O-])c1` (stereo not drawn) [DS-1-295, 4-((3-chlorophenyl)thio)-N-((1-ethylpyrrolidin-2-yl)methyl)-3-nitrobenzamide] here?
**A.** 70 nM

**Q.** For `CCN1CCCC1CNC(=O)c1ccc(Sc2ccc(C)c(C)c2)c([N+](=O)[O-])c1` (stereo not drawn) [DS-1-299, 4-((3,4-dimethylphenyl)thio)-N-((1-ethylpyrrolidin-2-yl)methyl)-3-nitrobenzamide], which EC50 is on record?
**A.** 169 nM

**Q.** How did the EC50 turn out when `CCN1CCCC1CNC(=O)c1ccc(Sc2cccc(C)c2)c([N+](=O)[O-])c1` (stereo not drawn) [DS-1-305, N-((1-ethylpyrrolidin-2-yl)methyl)-3-nitro-4-(m-tolylthio)benzamide] was run?
**A.** 86 nM

**Q.** For `C#CCN(CC)CCNC(=O)c1ccc(Sc2ccc(F)cc2)c([N+](=O)[O-])c1` [DS-2-035, N-(2-(ethyl(prop-2-yn-1-yl)amino)ethyl)-4-((4-fluorophenyl)thio)-3-nitrobenzamide], which EC50 is on record?
**A.** 49 nM

**Q.** How did the EC50 turn out when `CCN1CCCC1CNC(=O)c1ccc(C(O)c2ccc(F)cc2)c([N+](=O)[O-])c1` (stereo not drawn) [DS-2-051, N-((1-ethylpyrrolidin-2-yl)methyl)-4-((4-fluorophenyl)(hydroxy)methyl)-3-nitrobenzamide] was run?
**A.** 564 nM

**Q.** `CCN1CCCC1CNS(=O)(=O)c1ccc(Sc2ccc(F)cc2)c([N+](=O)[O-])c1` (stereo not drawn) [DS-2-055, N-((1-ethylpyrrolidin-2-yl)methyl)-4-((4-fluorophenyl)thio)-3-nitrobenzenesulfonamide] was tested. Which EC50 did it give?
**A.** 155 nM

**Q.** How did the EC50 turn out when `CCN1CCCC1CNC(=O)c1ccc(C(=O)c2ccc(F)cc2)c([N+](=O)[O-])c1` (stereo not drawn) [DS-2-057, N-((1-ethylpyrrolidin-2-yl)methyl)-4-(4-fluorobenzoyl)-3-nitrobenzamide] was run?
**A.** 233 nM

**Q.** `CCN1CCCC1CN(C)C(=O)c1ccc(Sc2ccc(F)cc2)c([N+](=O)[O-])c1` (stereo not drawn) [DS-2-061, N-((1-ethylpyrrolidin-2-yl)methyl)-4-((4-fluorophenyl)thio)-N-methyl-3-nitrobenzamide] was tested. Which EC50 did it give?
**A.** 15 nM

**Q.** Which EC50 does the source give for `C#CCN(CC)CCNC(=O)c1ccc(Sc2ccc(N=[N+]=[N-])cc2)c([N+](=O)[O-])c1` [DS-2-091, 4-((4-azidophenyl)thio)-N-(2-(ethyl(prop-2-yn-1-yl)amino)ethyl)-3-nitrobenzamide] here?
**A.** > 1000 nM

**Q.** With `C#CCOc1ccc(Sc2ccc(C(=O)NCCN(CC)Cc3ccc(C(=O)c4ccccc4)cc3)cc2[N+](=O)[O-])cc1` [DS-2-093, N-(2-((4-benzoylbenzyl)(ethyl)amino)ethyl)-3-nitro-4-((4-(prop-2-yn-1-yloxy)phenyl)thio)benzamide] as the compound, how does the EC50 read?
**A.** > 1000 nM

**Q.** How did the EC50 turn out when `C#CCN(CC)CCNC(=O)c1ccc(Oc2ccc(C(=O)c3ccccc3)cc2)c([N+](=O)[O-])c1` [DS-2-097, 4-(4-benzoylphenoxy)-N-(2-(ethyl(prop-2-yn-1-yl)amino)ethyl)-3-nitrobenzamide] was run?
**A.** > 1000 nM

**Q.** How did the EC50 turn out when `C#CCN(CC)CCNC(=O)c1ccc(Oc2ccccc2C(=O)c2ccccc2)c([N+](=O)[O-])c1` [DS-2-101, 4-(2-benzoylphenoxy)-N-(2-(ethyl(prop-2-yn-1-yl)amino)ethyl)-3-nitrobenzamide] was run?
**A.** > 1000 nM

**Q.** With `C#CCN(CC)CCNC(=O)c1ccc(C(=O)c2ccc(F)cc2)c([N+](=O)[O-])c1` [DS-2-107, N-(2-(ethyl(prop-2-yn-1-yl)amino)ethyl)-4-(4-fluorobenzoyl)-3-nitrobenzamide] as the compound, how does the EC50 read?
**A.** > 1000 nM

**Q.** `C#CCOc1ccc(Sc2ccc(C(=O)NCCNCC)cc2[N+](=O)[O-])cc1` [DS-2-111, N-(2-(ethylamino)ethyl)-3-nitro-4-((4-(prop-2-yn-1-yloxy)phenyl)thio)benzamide] was tested. Which EC50 did it give?
**A.** > 1000 nM

**Q.** How did the EC50 turn out when `CCN1CCCC1CNC(=O)c1ccc([N+](=O)[O-])c(Sc2ccc(F)cc2)c1` (stereo not drawn) [DS-2-115, N-((1-ethylpyrrolidin-2-yl)methyl)-3-((4-fluorophenyl)thio)-4-nitrobenzamide] was run?
**A.** 60 nM

**Q.** With `CN1CCN(CCNC(=O)c2ccc(Sc3ccc(F)cc3)c([N+](=O)[O-])c2)CC1` [DS-2-121, 4-((4-fluorophenyl)thio)-N-(2-(4-methylpiperazin-1-yl)ethyl)-3-nitrobenzamide] as the compound, how does the EC50 read?
**A.** 287 nM

**Q.** With `O=C(NCCN1CCCCC1)c1ccc(Sc2ccc(F)cc2)c([N+](=O)[O-])c1` [DS-2-125, 4-((4-fluorophenyl)thio)-3-nitro-N-(2-(piperidin-1-yl)ethyl)benzamide] as the compound, how does the EC50 read?
**A.** 50 nM

**Q.** How did the EC50 turn out when `O=C(NCCN1CCNCC1)c1ccc(Sc2ccc(F)cc2)c([N+](=O)[O-])c1` [DS-2-129, 4-((4-fluorophenyl)thio)-3-nitro-N-(2-(piperazin-1-yl)ethyl)benzamide] was run?
**A.** 141 nM

**Q.** Which EC50 does the source give for `CCN1CCCC1CNC(=O)c1ccc(Sc2ccc(Cl)c(C(F)(F)F)c2)c([N+](=O)[O-])c1` (stereo not drawn) [DS-2-143, 4-((4-chloro-3-(trifluoromethyl)phenyl)thio)-N-((1-ethylpyrrolidin-2-yl)methyl)-3-nitrobenzamide] here?
**A.** 129 nM

**Q.** `CCN1CCCC1CNC(=O)c1ccc(Sc2cccc(N)c2)c([N+](=O)[O-])c1` (stereo not drawn) [JCH-109, 4-((3-aminophenyl)thio)-N-((1-ethylpyrrolidin-2-yl)methyl)-3-nitrobenzamide] was tested. Which EC50 did it give?
**A.** 301 nM

**Q.** How did the EC50 turn out when `CCN1CCCC1CNC(=O)c1ccc(Sc2ccccc2Cl)c([N+](=O)[O-])c1` (stereo not drawn) [JCH-111, 4-((2-chlorophenyl)thio)-N-((1-ethylpyrrolidin-2-yl)methyl)-3-nitrobenzamide] was run?
**A.** 119 nM

**Q.** Which EC50 does the source give for `CCN1CCCC1CNC(=O)c1ccc(Sc2ccccc2C)c([N+](=O)[O-])c1` (stereo not drawn) [JCH-114, N-((1-ethylpyrrolidin-2-yl)methyl)-3-nitro-4-(o-tolylthio)benzamide] here?
**A.** 78 nM

**Q.** For `CCN1CCCC1CNC(=O)c1ccc(Sc2ccccc2OC)c([N+](=O)[O-])c1` (stereo not drawn) [JCH-117, N-((1-ethylpyrrolidin-2-yl)methyl)-4-((2-methoxyphenyl)thio)-3-nitrobenzamide], which EC50 is on record?
**A.** 119 nM

**Q.** Which EC50 does the source give for `CCN1CCCC1CNC(=O)c1ccc(Sc2ccc(Cl)cc2Cl)c([N+](=O)[O-])c1` (stereo not drawn) [JCH-120, 4-((2,4-dichlorophenyl)thio)-N-((1-ethylpyrrolidin-2-yl)methyl)-3-nitrobenzamide] here?
**A.** 68 nM

**Q.** Which EC50 does the source give for `CCN1CCCC1CNC(=O)c1ccc(Sc2cc(Cl)cc(Cl)c2)c([N+](=O)[O-])c1` (stereo not drawn) [JCH-124, 4-((3,5-dichlorophenyl)thio)-N-((1-ethylpyrrolidin-2-yl)methyl)-3-nitrobenzamide] here?
**A.** 510 nM

**Q.** Which EC50 does the source give for `CCN1CCCC1CNC(=O)c1ccc(Sc2ccc3ccccc3n2)c([N+](=O)[O-])c1` (stereo not drawn) [JCH-127, N-((1-ethylpyrrolidin-2-yl)methyl)-3-nitro-4-(quinolin-2-ylthio)benzamide] here?
**A.** 125 nM

**Q.** `CCN1CCCC1CNC(=O)c1ccc(Sc2cccc(O)c2)c([N+](=O)[O-])c1` (stereo not drawn) [JCH-140, N-((1-ethylpyrrolidin-2-yl)methyl)-4-((3-hydroxyphenyl)thio)-3-nitrobenzamide] was tested. Which EC50 did it give?
**A.** 139 nM

**Q.** Which EC50 does the source give for `CCN1CCCC1CNC(=O)c1ccc(Sc2ccccc2O)c([N+](=O)[O-])c1` (stereo not drawn) [JCH-143, N-((1-ethylpyrrolidin-2-yl)methyl)-4-((2-hydroxyphenyl)thio)-3-nitrobenzamide] here?
**A.** 160 nM

**Q.** With `CCN1CCCC1CNC(=O)c1ccc(Sc2cccc(OC)c2)c([N+](=O)[O-])c1` (stereo not drawn) [JCH-146, N-((1-ethylpyrrolidin-2-yl)methyl)-4-((3-methoxyphenyl)thio)-3-nitrobenzamide] as the compound, how does the EC50 read?
**A.** 185 nM
